Data reported in the supplement of paper PMC12076712.

Experiments:
Assay in all cases: pIC50, kinobeads binding competition
CLK1 = CLK1 (UniProt P49759)
How it was run: (§1)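 Jurkat cells were exposed alive to nine compound concentrations (top 30 μM, 1:4 steps) or vehicle for 60 min at 37 °C and then lysed. In a second format, nine concentrations (top 30 μM, 1:5 steps) were incubated for 60 min at 4 °C with Jurkat lysate or with a 1:1:1:1 lysate mix of HEK293, K-562, HepG2 and placenta. Proteins captured on Kinobeads were digested and quantified by TMT10 LC-MS/MS. pIC50 values were derived from logistic dose-response fits (R drc package) of fold changes relative to vehicle, in biological duplicates.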

EPHB6 = biological target: T1, EPHB6 (UniProt O15197)
T1 sequence (whole entry): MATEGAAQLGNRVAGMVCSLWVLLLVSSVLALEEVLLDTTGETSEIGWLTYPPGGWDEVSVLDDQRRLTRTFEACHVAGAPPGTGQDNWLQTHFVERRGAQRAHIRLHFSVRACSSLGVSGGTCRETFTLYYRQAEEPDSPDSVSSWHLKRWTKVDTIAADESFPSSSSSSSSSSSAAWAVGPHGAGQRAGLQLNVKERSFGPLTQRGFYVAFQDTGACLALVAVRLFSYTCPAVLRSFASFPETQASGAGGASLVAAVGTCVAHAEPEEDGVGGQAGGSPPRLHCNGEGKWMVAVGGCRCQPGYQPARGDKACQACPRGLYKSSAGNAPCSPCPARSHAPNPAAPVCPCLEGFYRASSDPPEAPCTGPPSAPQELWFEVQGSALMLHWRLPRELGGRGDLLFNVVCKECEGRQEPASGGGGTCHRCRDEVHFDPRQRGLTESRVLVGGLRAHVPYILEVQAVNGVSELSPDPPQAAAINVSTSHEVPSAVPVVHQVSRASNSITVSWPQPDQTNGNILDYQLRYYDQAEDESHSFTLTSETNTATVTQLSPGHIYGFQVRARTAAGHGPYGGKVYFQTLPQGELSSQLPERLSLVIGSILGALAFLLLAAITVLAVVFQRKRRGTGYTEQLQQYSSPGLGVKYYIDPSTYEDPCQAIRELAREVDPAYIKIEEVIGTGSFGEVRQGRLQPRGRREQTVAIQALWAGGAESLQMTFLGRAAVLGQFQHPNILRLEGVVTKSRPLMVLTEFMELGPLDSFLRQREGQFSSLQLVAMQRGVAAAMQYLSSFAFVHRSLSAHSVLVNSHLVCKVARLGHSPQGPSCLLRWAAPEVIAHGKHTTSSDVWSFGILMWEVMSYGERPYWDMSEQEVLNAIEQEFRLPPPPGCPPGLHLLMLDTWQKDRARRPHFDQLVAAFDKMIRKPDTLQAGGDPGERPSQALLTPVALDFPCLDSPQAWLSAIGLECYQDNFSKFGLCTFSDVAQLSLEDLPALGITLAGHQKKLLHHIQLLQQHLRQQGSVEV
How it was run: as §1

FGFR2 = FGFR2 (UniProt P21802); details: cell material: Lysate mix
How it was run: as §1

LIMK1 = LIMK1 (UniProt P53667)
How it was run: as §1

MAST3 = MAST3 (UniProt O60307)
How it was run: as §1

ROCK1 = ROCK1 (UniProt Q13464)
How it was run: as §1

UniProt O14920 = biological target: T2, UniProt O14920
T2 sequence (whole entry): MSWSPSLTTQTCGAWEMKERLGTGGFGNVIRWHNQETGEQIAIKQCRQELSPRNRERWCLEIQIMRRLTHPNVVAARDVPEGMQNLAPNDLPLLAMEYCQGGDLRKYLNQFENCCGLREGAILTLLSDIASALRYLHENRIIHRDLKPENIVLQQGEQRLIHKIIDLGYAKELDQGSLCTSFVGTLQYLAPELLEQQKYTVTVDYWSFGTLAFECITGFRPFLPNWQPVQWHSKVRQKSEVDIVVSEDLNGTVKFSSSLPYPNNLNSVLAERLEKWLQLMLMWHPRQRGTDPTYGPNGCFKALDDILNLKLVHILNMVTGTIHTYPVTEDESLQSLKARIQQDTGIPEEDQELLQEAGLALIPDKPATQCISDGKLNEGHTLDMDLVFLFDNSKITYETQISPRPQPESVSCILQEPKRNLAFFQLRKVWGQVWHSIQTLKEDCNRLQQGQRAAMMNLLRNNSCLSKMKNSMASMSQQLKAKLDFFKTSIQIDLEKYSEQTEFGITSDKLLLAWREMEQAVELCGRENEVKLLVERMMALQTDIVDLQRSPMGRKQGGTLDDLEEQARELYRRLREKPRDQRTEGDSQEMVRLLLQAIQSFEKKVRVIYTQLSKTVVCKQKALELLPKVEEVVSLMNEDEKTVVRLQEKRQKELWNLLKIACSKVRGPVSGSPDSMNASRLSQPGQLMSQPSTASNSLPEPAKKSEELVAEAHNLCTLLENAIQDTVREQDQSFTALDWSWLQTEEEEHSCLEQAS
How it was run: as §1

UniProt Q8N4C8 = biological target: UniProt Q8N4C8
How it was run: as §1

UniProt Q8TBX8 = biological target: T3, UniProt Q8TBX8
T3 sequence (whole entry): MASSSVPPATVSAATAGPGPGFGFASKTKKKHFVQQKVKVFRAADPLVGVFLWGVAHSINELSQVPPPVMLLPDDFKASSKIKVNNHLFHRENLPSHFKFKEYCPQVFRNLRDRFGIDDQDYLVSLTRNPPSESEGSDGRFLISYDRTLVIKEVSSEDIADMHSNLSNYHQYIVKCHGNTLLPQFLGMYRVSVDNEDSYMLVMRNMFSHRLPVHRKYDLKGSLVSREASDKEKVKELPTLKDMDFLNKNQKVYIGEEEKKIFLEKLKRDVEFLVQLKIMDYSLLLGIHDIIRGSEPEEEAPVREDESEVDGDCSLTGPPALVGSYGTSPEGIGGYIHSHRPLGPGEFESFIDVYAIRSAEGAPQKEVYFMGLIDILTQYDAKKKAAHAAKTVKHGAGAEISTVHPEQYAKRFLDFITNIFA
How it was run: as §1

Chain of MAST3 (O60307 whole entry): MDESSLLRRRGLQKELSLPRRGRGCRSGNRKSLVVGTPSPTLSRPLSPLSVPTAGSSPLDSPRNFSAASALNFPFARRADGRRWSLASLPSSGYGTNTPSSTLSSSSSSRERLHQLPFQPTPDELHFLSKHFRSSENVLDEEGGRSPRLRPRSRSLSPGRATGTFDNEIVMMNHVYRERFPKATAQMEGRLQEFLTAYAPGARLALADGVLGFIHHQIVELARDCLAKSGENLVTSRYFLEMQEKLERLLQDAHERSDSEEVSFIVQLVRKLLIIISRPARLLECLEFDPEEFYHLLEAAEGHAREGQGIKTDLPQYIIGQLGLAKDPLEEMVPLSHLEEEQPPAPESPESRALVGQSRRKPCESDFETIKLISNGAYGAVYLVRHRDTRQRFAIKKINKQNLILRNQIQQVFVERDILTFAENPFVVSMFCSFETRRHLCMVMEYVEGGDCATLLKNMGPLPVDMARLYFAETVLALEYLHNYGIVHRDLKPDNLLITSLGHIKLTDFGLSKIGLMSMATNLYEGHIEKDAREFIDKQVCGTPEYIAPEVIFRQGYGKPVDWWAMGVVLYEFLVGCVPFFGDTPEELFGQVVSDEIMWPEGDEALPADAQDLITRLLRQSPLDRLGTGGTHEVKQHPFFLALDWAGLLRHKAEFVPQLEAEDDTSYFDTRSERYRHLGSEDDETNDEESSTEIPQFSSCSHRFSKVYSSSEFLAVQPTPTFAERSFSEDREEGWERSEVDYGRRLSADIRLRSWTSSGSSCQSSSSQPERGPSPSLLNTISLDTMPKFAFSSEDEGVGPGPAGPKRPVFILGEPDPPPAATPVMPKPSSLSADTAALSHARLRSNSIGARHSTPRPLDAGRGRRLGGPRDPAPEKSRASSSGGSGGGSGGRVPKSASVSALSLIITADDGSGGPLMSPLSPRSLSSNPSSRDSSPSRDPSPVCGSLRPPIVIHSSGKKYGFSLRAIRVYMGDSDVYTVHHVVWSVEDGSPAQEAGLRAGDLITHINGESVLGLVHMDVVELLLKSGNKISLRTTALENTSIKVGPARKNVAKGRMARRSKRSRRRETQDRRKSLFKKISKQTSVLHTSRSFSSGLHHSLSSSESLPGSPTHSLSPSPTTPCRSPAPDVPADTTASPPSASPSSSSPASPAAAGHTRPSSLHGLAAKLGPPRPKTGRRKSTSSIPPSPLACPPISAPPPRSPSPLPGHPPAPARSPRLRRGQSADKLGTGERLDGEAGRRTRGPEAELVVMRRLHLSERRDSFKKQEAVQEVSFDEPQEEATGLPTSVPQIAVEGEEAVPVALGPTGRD
Chain of UniProt Q8N4C8 (Q8N4C8 whole entry, looked up): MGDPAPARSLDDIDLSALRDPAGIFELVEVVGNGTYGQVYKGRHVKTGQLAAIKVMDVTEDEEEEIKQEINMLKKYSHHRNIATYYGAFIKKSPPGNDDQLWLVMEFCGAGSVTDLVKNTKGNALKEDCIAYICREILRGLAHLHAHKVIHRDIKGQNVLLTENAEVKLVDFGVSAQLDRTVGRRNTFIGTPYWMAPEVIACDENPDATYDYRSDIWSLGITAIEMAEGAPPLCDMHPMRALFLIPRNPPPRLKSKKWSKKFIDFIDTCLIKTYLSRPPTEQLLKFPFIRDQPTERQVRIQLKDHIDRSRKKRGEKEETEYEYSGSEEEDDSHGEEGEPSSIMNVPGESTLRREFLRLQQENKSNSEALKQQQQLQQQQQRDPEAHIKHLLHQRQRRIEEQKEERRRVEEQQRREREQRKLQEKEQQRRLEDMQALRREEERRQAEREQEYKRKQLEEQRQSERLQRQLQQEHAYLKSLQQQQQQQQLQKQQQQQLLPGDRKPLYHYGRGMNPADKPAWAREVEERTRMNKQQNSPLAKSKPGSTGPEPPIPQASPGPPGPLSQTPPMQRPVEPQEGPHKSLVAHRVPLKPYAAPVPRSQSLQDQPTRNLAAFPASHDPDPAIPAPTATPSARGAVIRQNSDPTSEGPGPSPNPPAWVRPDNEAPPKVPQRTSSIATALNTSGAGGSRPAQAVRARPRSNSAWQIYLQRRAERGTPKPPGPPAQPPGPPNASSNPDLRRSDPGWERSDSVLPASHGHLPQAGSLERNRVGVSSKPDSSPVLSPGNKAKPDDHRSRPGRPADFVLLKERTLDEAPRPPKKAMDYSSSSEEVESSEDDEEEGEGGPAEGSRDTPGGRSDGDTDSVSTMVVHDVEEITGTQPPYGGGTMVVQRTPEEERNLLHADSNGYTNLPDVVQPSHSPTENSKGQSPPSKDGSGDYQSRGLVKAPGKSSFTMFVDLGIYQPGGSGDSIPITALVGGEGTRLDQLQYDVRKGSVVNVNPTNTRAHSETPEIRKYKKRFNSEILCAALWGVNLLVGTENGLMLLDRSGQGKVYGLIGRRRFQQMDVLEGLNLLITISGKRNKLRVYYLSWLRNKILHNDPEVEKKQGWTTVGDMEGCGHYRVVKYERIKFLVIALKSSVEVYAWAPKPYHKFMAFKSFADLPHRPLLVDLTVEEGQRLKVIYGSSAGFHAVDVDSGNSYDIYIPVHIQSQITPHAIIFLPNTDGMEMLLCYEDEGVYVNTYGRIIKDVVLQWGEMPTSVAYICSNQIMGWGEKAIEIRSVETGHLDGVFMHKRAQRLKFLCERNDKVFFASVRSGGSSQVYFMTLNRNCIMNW
Chain of LIMK1 (P53667 whole entry, looked up): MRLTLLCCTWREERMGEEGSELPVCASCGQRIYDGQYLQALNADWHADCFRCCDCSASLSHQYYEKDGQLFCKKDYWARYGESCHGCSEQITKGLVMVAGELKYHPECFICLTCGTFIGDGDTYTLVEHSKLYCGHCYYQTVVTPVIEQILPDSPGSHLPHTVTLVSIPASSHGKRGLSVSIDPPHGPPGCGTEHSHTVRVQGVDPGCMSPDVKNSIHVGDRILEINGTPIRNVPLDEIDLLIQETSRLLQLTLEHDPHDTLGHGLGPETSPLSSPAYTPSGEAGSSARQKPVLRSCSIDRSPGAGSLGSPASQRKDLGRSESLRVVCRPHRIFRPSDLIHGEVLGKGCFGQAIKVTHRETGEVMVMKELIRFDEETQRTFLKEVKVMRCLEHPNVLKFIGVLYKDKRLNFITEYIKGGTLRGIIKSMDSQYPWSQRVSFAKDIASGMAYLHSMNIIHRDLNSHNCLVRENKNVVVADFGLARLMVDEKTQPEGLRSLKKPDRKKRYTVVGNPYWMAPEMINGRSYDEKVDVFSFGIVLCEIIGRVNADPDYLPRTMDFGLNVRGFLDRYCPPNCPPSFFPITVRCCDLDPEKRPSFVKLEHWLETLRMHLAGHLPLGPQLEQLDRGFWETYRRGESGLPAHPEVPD
Chain of FGFR2 (P21802 whole entry, looked up): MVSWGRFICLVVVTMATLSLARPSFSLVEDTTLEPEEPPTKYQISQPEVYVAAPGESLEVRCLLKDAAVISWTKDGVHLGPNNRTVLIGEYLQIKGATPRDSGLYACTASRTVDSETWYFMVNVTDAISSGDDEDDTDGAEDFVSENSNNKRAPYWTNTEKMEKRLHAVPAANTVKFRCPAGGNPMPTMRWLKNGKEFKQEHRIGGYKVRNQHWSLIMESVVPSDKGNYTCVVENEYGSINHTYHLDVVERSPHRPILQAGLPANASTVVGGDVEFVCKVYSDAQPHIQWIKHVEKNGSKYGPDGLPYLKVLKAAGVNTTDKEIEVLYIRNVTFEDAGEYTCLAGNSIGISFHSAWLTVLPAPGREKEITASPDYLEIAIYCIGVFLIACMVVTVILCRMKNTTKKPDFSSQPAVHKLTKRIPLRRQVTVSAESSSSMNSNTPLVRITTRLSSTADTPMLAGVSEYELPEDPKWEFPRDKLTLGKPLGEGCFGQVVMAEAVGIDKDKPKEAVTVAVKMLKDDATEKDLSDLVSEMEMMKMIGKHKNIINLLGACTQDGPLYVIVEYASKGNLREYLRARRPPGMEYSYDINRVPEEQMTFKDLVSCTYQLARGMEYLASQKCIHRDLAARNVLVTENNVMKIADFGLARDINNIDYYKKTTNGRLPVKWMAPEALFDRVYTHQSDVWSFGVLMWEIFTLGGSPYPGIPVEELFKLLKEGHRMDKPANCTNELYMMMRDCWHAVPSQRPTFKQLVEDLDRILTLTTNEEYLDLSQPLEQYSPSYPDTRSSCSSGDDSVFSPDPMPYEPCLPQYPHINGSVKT
Chain of CLK1 (P49759 whole entry, looked up): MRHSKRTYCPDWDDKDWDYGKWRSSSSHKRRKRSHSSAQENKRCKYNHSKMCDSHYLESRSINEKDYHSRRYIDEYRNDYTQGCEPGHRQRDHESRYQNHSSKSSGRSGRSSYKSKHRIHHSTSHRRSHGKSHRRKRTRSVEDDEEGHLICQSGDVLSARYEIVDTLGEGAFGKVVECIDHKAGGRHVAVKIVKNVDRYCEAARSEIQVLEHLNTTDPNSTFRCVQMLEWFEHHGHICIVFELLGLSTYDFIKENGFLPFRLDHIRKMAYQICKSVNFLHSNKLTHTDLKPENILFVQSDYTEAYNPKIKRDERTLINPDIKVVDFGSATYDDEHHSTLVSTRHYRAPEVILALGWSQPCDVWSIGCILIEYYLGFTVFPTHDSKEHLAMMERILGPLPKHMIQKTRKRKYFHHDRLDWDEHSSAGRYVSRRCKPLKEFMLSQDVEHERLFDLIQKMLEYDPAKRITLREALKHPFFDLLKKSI

Row | pIC50 (CLK1; cell material: Lysate mix) | pIC50 (FGFR2) | pIC50 (MAST3; cell material: Lysate mix) | pIC50 (ROCK1; cell material: Jurkat cells) | pIC50 (ROCK1; cell material: Lysate mix) | pIC50 (UniProt O14920; cell material: Lysate mix) | pIC50 (UniProt Q8N4C8; cell material: Lysate mix) | pIC50 (UniProt Q8TBX8; cell material: Lysate mix) | pIC50 (EPHB6; cell material: Lysate mix) | pIC50 (LIMK1; cell material: Lysate mix) | Compound | pIC50 (CLK1; cell material: Jurkat lysate) | pIC50 (EPHB6; cell material: Jurkat cells) | pIC50 (EPHB6; cell material: Jurkat lysate) | pIC50 (LIMK1; cell material: Jurkat cells) | pIC50 (MAST3; cell material: Jurkat cells) | pIC50 (MAST3; cell material: Jurkat lysate) | pIC50 (ROCK1; cell material: Jurkat lysate) | pIC50 (UniProt O14920; cell material: Jurkat cells) | pIC50 (UniProt O14920; cell material: Jurkat lysate) | pIC50 (UniProt Q8N4C8; cell material: Jurkat cells) | pIC50 (UniProt Q8N4C8; cell material: Jurkat lysate) | pIC50 (UniProt Q8TBX8; cell material: Jurkat lysate) | pIC50 (CLK1; cell material: Jurkat cells) | pIC50 (LIMK1; cell material: Jurkat lysate) | pIC50 (UniProt Q8TBX8; cell material: Jurkat cells)
1 | < 4.52 | < 4.52 | 4.9 | < 4.52 | < 4.52 | < 4.52 | < 4.52 | < 4.52 | – | – | O=C(NCCNC(=O)c1cc(Nc2cc(C3CC3)[nH]n2)nc(N2CCN(Cc3ccc(S(=O)(=O)F)cc3)CC2)n1)OC1CC/C=C/CCC1 (stereo not given) | < 4.52 | < 4.52 | < 4.52 | 6.66 | 6.5 | 5.06 | < 4.52 | < 4.52 | < 4.52 | 5.12 | < 4.52 | < 4.52 | – | – | –
2 | < 4.52 | < 4.52 | 4.84 | – | < 4.52 | < 4.52 | < 4.52 | < 4.52 | < 4.52 | < 4.52 | Cc1cc(Nc2cc(C(=O)NCCNC(=O)OC3CC/C=C/CCC3)nc(N3CCN(Cc4ccc(S(=O)(=O)F)cc4)CC3)n2)n[nH]1 (stereo not given) | – | – | – | – | – | – | – | – | – | – | – | – | – | – | –
3 | 5.44 | 5.24 | 6.22 | – | < 4.52 | < 4.52 | < 4.52 | < 4.52 | < 4.52 | 6.06 | CCNC(=O)c1cc(Nc2cc(C3CC3)[nH]n2)nc(N2CCN(Cc3ccc(S(=O)(=O)F)cc3)CC2)n1 | – | – | – | – | – | – | – | – | – | – | – | – | – | – | –
4 | < 4.52 | < 4.52 | 6.39 | – | < 4.52 | < 4.52 | < 4.52 | < 4.52 | < 4.52 | 5.74 | CCNC(=O)c1cc(Nc2cc(C)[nH]n2)nc(N2CCN(Cc3ccc(S(=O)(=O)F)cc3)CC2)n1 | – | – | – | – | – | – | – | – | – | – | – | – | – | – | –
5 | < 4.52 | < 4.52 | 6.16 | – | < 4.52 | < 4.52 | < 4.52 | < 4.52 | < 4.52 | 5.62 | C#CCNC(=O)c1cc(Nc2cc(C)[nH]n2)nc(N2CCN(Cc3ccc(S(=O)(=O)F)cc3)CC2)n1 | – | – | – | – | – | – | – | – | – | – | – | – | – | – | –

Row | Compound | pIC50 (CLK1; cell material: Lysate mix) | pIC50 (FGFR2) | pIC50 (MAST3; cell material: Lysate mix) | pIC50 (ROCK1; cell material: Jurkat cells) | pIC50 (ROCK1; cell material: Lysate mix) | pIC50 (UniProt O14920; cell material: Lysate mix) | pIC50 (UniProt Q8N4C8; cell material: Lysate mix) | pIC50 (UniProt Q8TBX8; cell material: Lysate mix) | pIC50 (EPHB6; cell material: Lysate mix) | pIC50 (LIMK1; cell material: Lysate mix) | pIC50 (CLK1; cell material: Jurkat lysate) | pIC50 (EPHB6; cell material: Jurkat cells) | pIC50 (EPHB6; cell material: Jurkat lysate) | pIC50 (LIMK1; cell material: Jurkat cells) | pIC50 (MAST3; cell material: Jurkat cells) | pIC50 (MAST3; cell material: Jurkat lysate) | pIC50 (ROCK1; cell material: Jurkat lysate) | pIC50 (UniProt O14920; cell material: Jurkat cells) | pIC50 (UniProt O14920; cell material: Jurkat lysate) | pIC50 (UniProt Q8N4C8; cell material: Jurkat cells) | pIC50 (UniProt Q8N4C8; cell material: Jurkat lysate) | pIC50 (UniProt Q8TBX8; cell material: Jurkat lysate) | pIC50 (CLK1; cell material: Jurkat cells) | pIC50 (LIMK1; cell material: Jurkat lysate) | pIC50 (UniProt Q8TBX8; cell material: Jurkat cells)
6 | C#CCNC(=O)c1cc(Nc2cc(C3CC3)[nH]n2)nc(N2CCN(Cc3ccc(S(=O)(=O)F)cc3)CC2)n1 | 5.66 | 4.94 | 6.56 | – | < 4.52 | < 4.52 | < 4.52 | < 4.52 | < 4.52 | 6.32 | 5.38 | 5.28 | < 4.52 | 6.96 | 6.54 | 6.27 | < 4.52 | < 4.52 | < 4.52 | 5.72 | < 4.52 | < 4.52 | 6.11 | 5.99 | 5.4
